Kd and Activity data for 5 compounds are collected here from ChEMBL document CHEMBL1152150, “Interaction of ladder-shaped polyethers with transmembrane alpha-helix of glycophorin A as evidenced by saturation transfer difference NMR and surface plasmon resonance” (Bioorg Med Chem Lett, 2008).

Molecules are shown by their SMILES. Activity calls are given as the source filed them. No cut-off for these calls is given here.

The target of assay [1] is T1, Glycophorin-A (Homo sapiens, UniProt P02724). As to the kind of experiment: Binding affinity to transmembrane alpha-helix of glycophorin A by surface plasmon resonance method. A general note: In SPR one partner is held on a chip, and binding of the other changes the refractive index at the surface.
T1 sequence (P02724 whole entry): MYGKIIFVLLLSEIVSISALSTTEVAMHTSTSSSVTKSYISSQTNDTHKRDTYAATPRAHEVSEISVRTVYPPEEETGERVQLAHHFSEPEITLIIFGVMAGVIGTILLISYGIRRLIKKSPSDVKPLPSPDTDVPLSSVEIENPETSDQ
Assay [2] can be described thus: Binding affinity to transmembrane alpha-helix of glycophorin A 2G/2I mutant by surface plasmon resonance method.
The target in assay [3] is T1, Glycophorin-A. Kind of assay: Binding affinity to transmembrane alpha-helix of glycophorin A by saturation transfer difference NMR.

One may read the Kd as the free concentration of one partner at which half of the binding sites on the other are occupied at equilibrium, for simple one-to-one binding. Lower therefore signals a tighter complex. With `C[C@@]12CC[C@@H]3O[C@H](CO)[C@@H](O)C[C@H]3O[C@H]1C[C@H]1O[C@@H](COCc3ccccc3)[C@H](OCc3ccccc3)C[C@@H]1O2`, the Kd at Glycophorin-A [1] was 240 µM; in assay [2], 150 µM.
Turning to `OC[C@H]1O[C@@H](COCc2ccccc2)[C@H](OCc2ccccc2)C[C@@H]1O`, the Kd at Glycophorin-A [1] came out at 2400 µM; in assay [2], 860 µM.
On the same counts, the results for `C=CCC(=C)/C=C/[C@@](C)(O)[C@H]1O[C@@H]2C[C@@H]3O[C@@H]4C[C@@H]5O[C@@H]6C[C@@H]7O[C@@H]8C[C@@H]9O[C@@H]%10C[C@@H]%11O[C@](C)(CCO)[C@@H](O)C[C@H]%11O[C@H]%10C[C@H]9O[C@H]8CC[C@@]7(C)O[C@@]6(C)CC[C@H](C)[C@H]5O[C@H]4C[C@@]3(C)O[C@H]2CC1=C` [DESULFATED YESSOTOXIN] are 270 µM and 99 µM.
With `C[C@@]12CC[C@@H]3O[C@@H]4C[C@@H]5O[C@@H]6C[C@H](O)[C@@H](CO)O[C@H]6CC[C@@]5(C)O[C@H]4C[C@H]3O[C@H]1C[C@H]1O[C@@H](CCOCc3ccccc3)[C@H](OCc3ccccc3)C[C@@H]1O2`, the Kd worked out at 48 µM on Glycophorin-A [1] and 7.7 µM in assay [2].
Turning to `C=CCC(=C)/C=C/[C@@](C)(O)[C@H]1O[C@@H]2C[C@@H]3O[C@@H]4C[C@@H]5O[C@@H]6C[C@@H]7O[C@@H]8C[C@@H]9O[C@@H]%10C[C@@H]%11O[C@](C)(CCOS(=O)(=O)O)[C@@H](OS(=O)(=O)O)C[C@H]%11O[C@H]%10C[C@H]9O[C@H]8CC[C@@]7(C)O[C@@]6(C)CC[C@H](C)[C@H]5O[C@H]4C[C@@]3(C)O[C@H]2CC1=C` [YESSOTOXIN], the Kd was determined as 120 µM at Glycophorin-A [1] and 85 µM in assay [2]. In addition, the outcome on Glycophorin-A [3] was Active.
